Source: paper PMC12405493, “Selective ubiquitination of drug-like small molecules by the ubiquitin ligase HUWE1” (Nature Communications, 2025)

Key:
[1] = molecular target: T1, HUWE1^HECT (Homo sapiens, UniProt Q7Z6Z7); assay: Isothermal titration calorimetry (ITC) with HUWE1^HECT; assay type: binding; settings: 25 °C
T1 construct: the isolated HECT domain of HUWE1 (HUWE1^HECT); made in house
T1 sequence (Q7Z6Z7 4038-4374 limits assumed): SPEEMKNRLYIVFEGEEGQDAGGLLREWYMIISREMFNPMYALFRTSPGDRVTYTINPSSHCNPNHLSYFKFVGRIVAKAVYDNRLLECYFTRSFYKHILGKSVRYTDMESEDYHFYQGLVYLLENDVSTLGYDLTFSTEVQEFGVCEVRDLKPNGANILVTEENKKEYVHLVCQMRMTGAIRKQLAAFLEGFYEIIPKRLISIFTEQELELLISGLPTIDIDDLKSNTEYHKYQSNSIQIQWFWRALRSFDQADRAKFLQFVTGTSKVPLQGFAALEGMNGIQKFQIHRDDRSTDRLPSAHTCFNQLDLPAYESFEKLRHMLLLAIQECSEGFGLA
Method: ITC was performed with an ITC200 calorimeter (MicroCal) at 25 °C. The proteins were dialyzed into 20 mM HEPES (pH 7.5), 150 mM NaCl, and 1 mM β-mercaptoethanol (β-ME) overnight. 600 μM HUWE1^HECT or HUWE1^HECT-Ub were applied to the cell and a 10-fold molar excess of BI8626 to the syringe (and vice versa). The reference cell was filled with buffer. Titration experiments included 1 injection of 1.5 μL, followed by 15 injections of 2.4 μL in 3-s intervals, with 150-s spacings between individual injections. The reference power was set to 12 μcal s^−1 and the stirring speed to 270 rpm. To control for instrument functionality, 5 mM CaCl2 were titrated into 0.4 mM EDTA in 10 mM MES (pH 5.6). Data were plotted with OriginPro v.2020b (OriginLab).

[2] = test system: HEK293T cells; assay: LC/MS/MS detection of ubiquitinated compound from cell lysates (Ub pull-down); assay type: cell-based, human; settings: 15 μM, 1 h
Method: Samples for LC/MS/MS analyses of the ubiquitinated inhibitors from reconstituted HUWE1^FL-driven reactions were prepared by in-solution trypsin (Mass Spec Grade, Promega) digestion, instead of the gel-based LysC digestion procedure described above. […] In both cases, the samples were reduced and alkylated with 10 mM TCEP and 20 mM iodoacetamide at 37 °C in the dark for 60 min. An equal mixture of Sera-Mag SpeedBeads with hydrophilic and hydrophobic surfaces (GE Healthcare; 1:1 mix (v/v)) was washed twice with water and added to the sample at 50:1(w/w) resin-to-protein ratio. […] The resulting peptides were then dried, dissolved in 5% ACN/0.1% FA (both v/v), and measured on a hybrid quadruple-Obitrap Exploris480 mass spectrometer (Thermo Fisher Scientific) coupled to an Ultimate 3000 UHPLC system (Thermo Fisher Scientific). […]
Sample preparation for LC/MS/MS detection of ubiquitinated compounds from cell lysates was performed according to the following workflow: HEK293T cells at 70% confluency were treated with 15 μM BI8626 or an equal volume of DMSO for 1 h. […] After 20 min incubation on a rotating wheel at 4 °C, the lysate was cleared by centrifugation, the total protein concentrations determined, and the sample (2.3 mg) diluted with 10 mM Tris (pH 7.5), 150 mM NaCl and 0.5 mM EDTA to a final volume of 1 mL. […]

Compound: NCc1cccc(CNc2ncnc3c(N4CCN(Cc5ccccc5)CC4)ncnc23)c1 [BI8626]
- Interaction with HUWE1^HECT by ITC [1]: No binding was detected
- Compound ubiquitination in cells (targeted MS/MS after Ub pull-down) [2]: indeed ubiquitinated in cells
